These results are taken from patent US20230012560A1, “HEPATITIS B ANTIVIRAL AGENTS” (TAIGEN BIOTECHNOLOGY CO., LTD., priority 2019, published 2023).

Each structure is given as a SMILES string.

For this assay, the system named is HBV (HepAD38 cells). Put plainly: Real-Time PCR Assay (extracellular HBV DNA from HepAD38 culture supernatants). It is filed as cell-based. Particulars: Hepatitis B virus, 120 h, compound treatment for 5 days without tetracycline, extracellular DNA in culture supernatant quantified by real-time PCR, read-out: EC50 (50% effective concentration). As to the method: HepAD38 cells were seeded and cultured on 96-well plates. After incubation for 2 days, cells were fed with compound-containing media without tetracycline. After compound treatment for 5 days, culture supernatants were collected. Extracellular DNA was then extracted using LabTurbo DNA mini kit, and quantified by real-time PCR.
Real-time PCR was performed using an ABI QuantStudio 3 system in a 96-well optical plate format. The PCR mixture containing forward primer (5′-[…]-3′) (SEQ ID NO.1), reverse primer (5′-GGTGAGTGATTGGAGGTTG-3′) (SEQ ID NO.2) and Luna Universal qPCR Master Mix in a final volume of 24 μl was incubated at 95° C. for 10 min followed by 45 cycle of incubation at 95° C. for 10 s and 60° C. for 10 s. Regression analysis was performed using GraphPad Prism 5 to calculate the 50% effective concentration (EC50) values.
(Quantitative PCR measures a nucleic acid by following its amplification.)
Take `CCNC(=O)C(=O)N1CCC(NS(=O)(=O)c2cn(C)c(C(=O)Nc3cc(F)c(F)c(F)c3)c2F)CC1` [Compound 69]: the EC50 is less than 100 nM.

For the compound `CCNC(=O)C(=O)N1CCC(NS(=O)(=O)c2cn(C)c(C(=O)Nc3ccc(F)c(C)c3)c2F)CC1` [Compound 71], the EC50 was less than 100 nM.

As for `CCNC(=O)C(=O)N1CCC(NS(=O)(=O)c2cn(C)c(C(=O)Nc3cccc(Cl)c3)c2F)CC1` [Compound 72], the EC50 is less than 100 nM.

For the compound `CCNC(=O)C(=O)N1CCC(NS(=O)(=O)c2cn(C)c(C(=O)Nc3cccc(C(F)(F)F)c3)c2F)CC1` [Compound 73], the EC50 is less than 100 nM.

In the case of `CCNC(=O)C(=O)N1CCC(NS(=O)(=O)c2cn(C)c(C(=O)Nc3ccc(F)c(Cl)c3F)c2F)CC1` [Compound 74], the EC50 was less than 100 nM.

Turning to `CC[C@@H](C)NC(=O)C(=O)N1CCC(NS(=O)(=O)c2cn(C)c(C(=O)Nc3cc(F)c(F)c(F)c3)c2F)CC1` [Compound 75], the EC50 was less than 100 nM.

Consider `CCNC(=O)C(=O)N1CCC(NS(=O)(=O)c2cn(C)c(C(=O)Nc3cc(F)c(F)c(F)c3)c2Cl)CC1` [Compound 76], for which the EC50 was less than 100 nM.

On to `O=C(NC1CC1)C(=O)N1CCC(NS(=O)(=O)c2c(F)c(C(=O)Nc3cc(F)c(F)c(F)c3)n3c2CCC3)CC1` [Compound 77], for which the EC50 was less than 100 nM.

As for `CCNC(=O)C(=O)N1CCC(NS(=O)(=O)c2c(Cl)c(C(=O)Nc3cc(F)c(F)c(F)c3)n3c2CCC3)CC1` [Compound 78], the EC50 was less than 100 nM.

As to `CCNC(=O)C(=O)N1CCC(NS(=O)(=O)c2c(C)c(C(=O)Nc3cc(F)c(F)c(F)c3)n3c2CCC3)CC1` [Compound 79], the EC50 was 300 to 1000 nM.

Take `CCNC(=O)C(=O)N1CCC(NS(=O)(=O)c2c(F)c(C(=O)Nc3ccc(F)c(F)c3)n(C)c2C)CC1` [Compound 80]: the EC50 is less than 100 nM.

Turning to `CCNC(=O)C(=O)N1CCC(NS(=O)(=O)c2c(F)c(C(=O)Nc3cc(F)c(F)c(F)c3)n(C)c2Br)CC1` [Compound 81], the EC50 is less than 100 nM.

Regarding `CCNC(=O)C(=O)N1CCC(C)(NS(=O)(=O)c2cn(C)c(C(=O)Nc3cc(F)c(F)c(F)c3)c2F)CC1` [Compound 82], the EC50 fell in the range of 100 to 300 nM.

For the compound `CCNC(=O)C(=O)N1CCC(NS(=O)(=O)c2cn(C)c(C(=O)Nc3ccc(F)c(F)c3)c2F)C(C)C1` (stereo not shown) [Compound 83], the EC50 is less than 100 nM.

Regarding `CCNC(=O)C(=O)N1CCC(NS(=O)(=O)c2cn(C)c(C(=O)Nc3cc(F)c(F)c(F)c3)c2Cl)CC1C` (stereo not shown) [Compound 84], the EC50 is less than 100 nM.

Take `CCNC(=O)C(=O)N1CCC2(NS(=O)(=O)c3cn(C)c(C(=O)Nc4cc(F)c(F)c(F)c4)c3F)CC2C1` (stereo not shown) [Compound 85]: the EC50 is less than 100 nM.

As to `CCNC(=O)C(=O)N1CCC(NS(=O)(=O)c2cn(C)c(C(=O)Nc3cc(F)c(F)c(F)c3)c2F)C(C)(C)C1` (stereo not shown) [Compound 86], the EC50 is less than 100 nM.

In the case of `CCNC(=O)C(=O)N1CCC(NS(=O)(=O)c2cn(C)c(C(=O)Nc3cc(F)c(F)c(F)c3)c2Cl)C2(CC2)C1` (stereo not shown) [Compound 87], the EC50 is less than 100 nM.

For the compound `CCNC(=O)C(=O)N1CCC(NS(=O)(=O)c2cn(C)c(C(=O)Nc3cc(F)c(F)c(F)c3)c2F)CC12CC2` (stereo not shown) [Compound 88], the EC50 was less than 100 nM.

For the compound `CCNC(=O)C(=O)N1CCC(NS(=O)(=O)c2cn(/C=C/F)c(C(=O)Nc3cc(F)cc(Cl)c3)c2F)CC1` [Compound 90], the EC50 is less than 100 nM.

Take `Cn1cc(S(=O)(=O)NC2CCN(C(=O)C(=O)NC3COC3)CC2(F)F)c(F)c1C(=O)Nc1ccc(F)c(F)c1` (stereo not shown) [Compound 92]: the EC50 is less than 100 nM.

As for `Cn1cc(S(=O)(=O)NC2CCN(C(=O)C(=O)NC3(C)CC3)CC2(F)F)c(Cl)c1C(=O)Nc1cc(F)c(F)c(F)c1` (stereo not shown) [Compound 93], the EC50 was less than 100 nM.

For `CCNC(=O)C(=O)N1CC[C@@H](NS(=O)(=O)c2cn(C)c(C(=O)Nc3ccc(F)c(F)c3)c2F)C(F)(F)C1` [Compound 94], the EC50 was less than 100 nM.

For `CCNC(=O)C(=O)N1CC[C@@H](NS(=O)(=O)c2cn(C)c(C(=O)Nc3ccc(F)c(F)c3)c2F)[C@@H](F)C1` [Compound 96], the EC50 is less than 100 nM.

Turning to `CC(C)NC(=O)C(=O)N1CC[C@@H](NS(=O)(=O)c2cn(C)c(C(=O)Nc3cc(F)c(F)c(F)c3)c2F)[C@@H](C)C1` [Compound 97], the EC50 is less than 100 nM.

Take `CCCNC(=O)C(=O)N1CC[C@@H](NS(=O)(=O)c2cn(C)c(C(=O)Nc3cc(F)c(F)c(F)c3)c2F)C(F)(F)C1` [Compound 98]: the EC50 was less than 100 nM.

`CCNC(=O)C(=O)N1CC[C@@H](NS(=O)(=O)c2cn(C)c(C(=O)Nc3ccc(F)c(F)c3)c2F)C(C)(C)C1` [Compound 99]: the EC50 is less than 100 nM.

`CNC(=O)C(=O)N1C[C@@H]2[C@H](C1)[C@@H]2NS(=O)(=O)c1cn(C)c(C(=O)Nc2cc(F)c(F)c(F)c2)c1F` [Compound 100]: the EC50 is less than 100 nM.
